Reference: patent EP3403652A1, “PREVENTION AND TREATMENT OF FIBROBLAST GROWTH FACTOR 23 (FGF23)-ASSOCIATED DISORDERS INCLUDING CHRONIC KIDNEY DISEASE (CKD)” (Veterinärmedizinische Universität Wien, priority 2017, dated 2018)

Assays:
5/6 Nx C57BL/6 mice = assay: 5/6 nephrectomy with angiotensin II infusion via osmotic mini-pumps; format: in vivo; conditions: AngII- vs. vehicle-treated 5/6-Nx mice, 4 and 8 weeks postsurgery
Experimental: The 5/6 nephrectomy (5/6 Nx) was performed in two stages (Leelahavanichkul A et al., Kidney Int. 78, 2010. 1136-1153) under isoflurane anesthesia (Fig. 1A). Pain was managed by s.c. injections of buprenorphine, metamizol and meloxicam. Additionally, the animals were treated for 3 days postsurgery with the analgesic piritramid via the drinking water, starting 6 h postsurgery. At the first stage (wk -1), the left kidney was decapsulated to avoid ureter and adrenal damage, and the upper and lower poles were partially resected via a left flank incision. Bleeding was controlled by microfibrillar collagen hemostasis (Avitene, Davol, Cranston, RI). The upper and lower poles were weighed. One week later, the entire right kidney was removed via a right flank incision and weighed. Animals with insufficient kidney resection as determined by a ratio of < 0.55 for the removed left kidney weight to the removed right kidney weight were euthanized. In the Sham surgery control mice, a left flank incision was performed at step 1, both poles of kidney were identified, then the flank incision was closed; a subsequent right flank incision was performed at step 2; the right renal artery was identified, then the flank incision was closed. After each flank incision, muscles and skin were repositioned and sewed. Mortality was tracked throughout the study. Necropsy was not performed on animals that died early.
Angiotensin II (Ang II) 0.75 µg/kg/min (Sigma) in physiological saline or vehicle was infused by subcutaneous osmotic mini-pumps (Alzet model 1004, Cupertino, CA) (Leelahavanichkul A et al., Kidney Int. 78, 2010. 1136-1153). The osmotic minipumps were inserted subcutaneously at the back under isoflurane anesthesia at 5 days after right NX or Sham surgery (Fig. 1A).
In order to test susceptibility of C57BL/6 mice to 5/6 nephrectomy (5/6-Nx)- and angiotensin II (AngII) infusion-induced CKD, 5/6-Nx was performed and osmotic minipumps continuously releasing vehicle or AngII were thereafter implanted into male wild-type (WT) C57Bl/6 mice, which were then monitored over 8 weeks after 5/6-Nx. All mice were maintained on rescue diet.

renal distal tubules [1] = assay: Intracellular Na+ imaging by 2-photon microscopy in SBFI-loaded live kidney slices ex vivo; format: cell-based, mice; conditions: for rFGF23-induced increase in intracellular Na^+ fluorescence (distal tubular Na^+ uptake): co-treatment with 200 ng/ml rFGF23, 2 h, iFGFR pan 120 nM; for decrease of SFBI fluorescence intensity in distal tubules: rFGF23-treated WT kidney slices, CTZ 10 µM
Experimental: (§1) The preparation of kidney slices for ex vivo experiments was performed as described in Andrukhova O et al. (EMBO J., 2014. 33, 229-246). Longitudinal 200-µm-thick live slices from freshly isolated kidneys of 3-month-old male WT and Klotho/VDR mice were prepared using a Leica VT1000 Vibratome (Leica Microsystems), and were used for ex vivo treatment with various substances as described below.
(§2) Longitudinal 200-µm-thick live slices of freshly isolated kidneys were prepared using a Leica VT1000 Vibratome (Leica Microsystems). For Na^+ imaging, the kidney slices of WT and Klotho/VDR mice were incubated for 60 min at 37°C with 2 µM of the sodium-sensitive dye SBFI (Molecular Probes), diluted in DMSO (Merck Millipore International) and 20% Pluronic (Merck Millipore International). For Ca^2+ imaging, the kidney slices were incubated for 30 min at 37°C with 2 µM of the calcium-sensitive dye Fluo-4 (Molecular Probes), diluted in DMSO and 20% Pluronic. Thereafter, the slices were washed two times for 20 min each in 0.1M PBS, and were subsequently incubated in vitro with vehicle (PBS), rFGF23 R176/179Q [(100 or 200 ng/ml) kindly provided by Amgen Inc., Thousand Oaks, CA, USA], PD173074 (Sigma-Aldrich) (10 nM for inhibiting FGFR1 and 25 nM for inhibiting FGFR1 and 3), pan FGFR inhibitor [(120 nM) FIIN1 hydrochloride, Tocris Bioscience, Bristol, UK)], WNK signalling inhibitor Closantel (30 ng/mL, generous gift of Dario R. Alessi) alone or combined at 37°C, 5% CO2 / 95% air humidified atmosphere for 2 h. […] For visualization of intracellular Na^+ and Ca^2+ content, SBFI or Fluo-4 were excited by a Ti:sapphire laser (Chameleon, Coherent Inc.) at 820 nm. Images (512 × 512 pixels) were acquired every 30 sec at a depth of 60 - 80 µm. Fluorescence images were analyzed using Image J software. The whole epithelial layer of the distal tubules was selected by manually drawing the region of interest (ROI) to quantify intracellular Na^+ and Ca^2+ levels. Fluorescence intensity was quantified in 4-9 ROIs per image, and the ratio between the fluorescence intensity and the ROI area was calculated for each tubule. This ratio was used for all subsequent calculations.
(§3) To gain more insight into the functional role of the rFGF23-induced increase in distal renal tubular ion channel expression and the FGF receptors involved, we performed intracellular Ca^2+ and Na^+ imaging by 2-photon microscopy in Fluo-4- or SFBI-loaded and subsequently rFGF23-treated (100 or 200 ng/ml for 2 h), 200-µm-thick renal slices prepared from WT and Klotho/VDR mice.
(§4) In this example it was assessed whether the Klotho-independent FGF23 signalling pathway is mediated through FGFR3 and/or 4, given that FGFR2 expression was low in distal renal tubules (Figure 12A). To dissect between the latter receptors, Klotho/VDR kidney slices were treated with rFGF23 alone or in combination with an FGFR1/FGFR3 inhibitor and the WNK signalling inhibitor closantel.

renal distal tubules [2] = assay: Intracellular Ca2+ imaging by 2-photon microscopy in Fluo-4-loaded live kidney slices ex vivo; format: cell-based, mice; conditions: co-treatment with 200 ng/ml rFGF23, 2 h, iFGFR pan 120 nM
Experimental: as §1, §2, §3, §4

TRPV5 = TRPV5 (Homo sapiens, UniProt Q9NQA5); conditions: 1 µM; literature (Nilius et al. 2001); cited from earlier work
TRPV6 = biological target: T1, TRPV6 (Homo sapiens, UniProt Q9H1D0); conditions: 1 µM; literature (Nilius et al. 2001); cited from earlier work
T1 sequence (Q9H1D0 1-765): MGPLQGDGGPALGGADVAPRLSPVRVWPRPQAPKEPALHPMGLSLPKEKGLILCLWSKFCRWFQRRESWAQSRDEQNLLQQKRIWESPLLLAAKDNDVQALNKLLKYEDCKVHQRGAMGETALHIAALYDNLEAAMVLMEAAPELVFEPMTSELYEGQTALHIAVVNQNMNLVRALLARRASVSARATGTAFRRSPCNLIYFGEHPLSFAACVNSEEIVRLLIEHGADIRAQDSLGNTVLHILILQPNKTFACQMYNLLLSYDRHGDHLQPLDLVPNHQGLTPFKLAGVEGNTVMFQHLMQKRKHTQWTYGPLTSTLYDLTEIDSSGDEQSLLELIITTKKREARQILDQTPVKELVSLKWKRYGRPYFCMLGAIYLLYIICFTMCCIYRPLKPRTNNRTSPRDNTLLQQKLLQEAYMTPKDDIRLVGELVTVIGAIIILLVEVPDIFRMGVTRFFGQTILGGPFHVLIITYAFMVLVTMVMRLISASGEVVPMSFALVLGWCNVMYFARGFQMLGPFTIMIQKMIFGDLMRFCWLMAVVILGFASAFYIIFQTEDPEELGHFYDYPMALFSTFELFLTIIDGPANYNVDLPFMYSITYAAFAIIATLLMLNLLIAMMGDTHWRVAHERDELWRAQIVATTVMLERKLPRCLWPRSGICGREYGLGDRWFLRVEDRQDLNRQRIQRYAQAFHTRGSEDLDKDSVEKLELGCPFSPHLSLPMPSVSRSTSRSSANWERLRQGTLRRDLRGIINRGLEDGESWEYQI

SPAK = SPAK (Homo sapiens, UniProt Q9UEW8); conditions: dose-dependent manner; literature (Yamada et al. 2016; Mori et al. 2013); cited from earlier work
WNK-SPAK binding = WNK-SPAK binding (Homo sapiens, UniProt Q9UEW8); conditions: literature (Mori et al. 2013); cited from earlier work
OSR1 = conditions: dose-dependent manner; literature (Yamada et al. 2016); cited from earlier work
[3] = Klotho/VDR kidney slices, closantel 30 ng/mL, BF 15 µM, PD173074 10 nM (iFGFR1) or 25 nM (FGFR1/3)
[4] = Klotho/VDR kidney slices, ruthenium red 10 µM, closantel 30 ng/mL, PD173074 10 nM (iFGFR1) or 25 nM (FGFR1/3)
[5] = WT kidney slices, ruthenium red 1 µM, iFGFR1 PD173074 10 nM
[6] = WT kidney slices, iFGFR1 PD173074 10 nM

TRPV5, sequence (Q9NQA5 whole entry, species assumed): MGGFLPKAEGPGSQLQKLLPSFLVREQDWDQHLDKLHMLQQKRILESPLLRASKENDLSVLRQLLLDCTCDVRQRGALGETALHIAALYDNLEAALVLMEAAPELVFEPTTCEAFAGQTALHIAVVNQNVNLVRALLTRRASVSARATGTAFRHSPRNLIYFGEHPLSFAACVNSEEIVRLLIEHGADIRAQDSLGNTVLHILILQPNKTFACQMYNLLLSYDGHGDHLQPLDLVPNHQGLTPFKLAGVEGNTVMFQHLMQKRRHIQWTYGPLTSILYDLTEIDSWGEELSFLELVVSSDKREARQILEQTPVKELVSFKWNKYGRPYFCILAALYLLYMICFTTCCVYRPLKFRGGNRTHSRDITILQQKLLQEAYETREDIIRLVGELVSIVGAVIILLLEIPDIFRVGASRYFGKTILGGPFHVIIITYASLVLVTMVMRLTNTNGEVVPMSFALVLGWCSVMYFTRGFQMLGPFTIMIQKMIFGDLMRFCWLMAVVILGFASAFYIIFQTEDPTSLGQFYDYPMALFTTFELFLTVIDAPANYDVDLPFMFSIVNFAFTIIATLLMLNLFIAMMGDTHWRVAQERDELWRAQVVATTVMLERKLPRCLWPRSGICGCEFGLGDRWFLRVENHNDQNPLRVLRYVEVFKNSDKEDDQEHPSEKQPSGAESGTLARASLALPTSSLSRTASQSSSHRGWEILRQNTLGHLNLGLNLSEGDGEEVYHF

Angiotensin II (DRVYIHPF; Angiotensin-2; UniProt P01019 25-32, looked up) [AngII, Angiotensin II (Sigma) infused by subcutaneous osmotic mini-pumps]
GFR (5/6 Nx C57BL/6 mice; 0.75 µg/kg/min s.c. infusion): no significant differences
azotemia (5/6 Nx C57BL/6 mice): no significant differences
mean arterial pressure measured by arterial catheterization (5/6 Nx C57BL/6 mice): no significant differences
proteinuria (5/6 Nx C57BL/6 mice): no significant differences

CCCCNc1cc(C(=O)O)cc(S(N)(=O)=O)c1Oc1ccccc1 [BF, bumetanide]
rFGF23-induced increase in intracellular Na^+ fluorescence (distal tubular Na^+ uptake) (renal distal tubules [1]; [3]): inhibited
decrease of SFBI fluorescence intensity in distal tubules (renal distal tubules [1]; BF 15 µM): approximately 50%

N.N.N.N.N.N.N.N.N.N.N.N.N.N.[Cl-].[Cl-].[Cl-].[Cl-].[Cl-].[Cl-].[O-2].[O-2].[Ru+3].[Ru+3].[Ru+4] [ruthenium red]
rFGF23-induced increase in intracellular Ca^2+ fluorescence (distal tubular Ca^2+ uptake) (renal distal tubules [2]; [4]): antagonize
rFGF23-induced increase in intracellular Ca^2+ fluorescence (distal tubular Ca^2+ uptake) (renal distal tubules [2]; [5]): reversed
TRPV5 channel function (TRPV5): block
TRPV6 channel function (TRPV6): not

C=CC(=O)Nc1cccc(CN2C(=O)N(c3c(Cl)c(OC)cc(OC)c3Cl)Cc3cnc(NCCCCN(CC)CC)nc32)c1.Cl [iFGFR pan, FIIN1 hydrochloride]
rFGF23-induced increase in intracellular Ca^2+ fluorescence (distal tubular Ca^2+ uptake) (renal distal tubules [2]; [4]): completely blocked
rFGF23-induced increase in intracellular Ca^2+ fluorescence (distal tubular Ca^2+ uptake) (renal distal tubules [2]; [5]): completely blocked
rFGF23-induced increase in intracellular Na^+ fluorescence (distal tubular Na^+ uptake) (renal distal tubules [1]; [3]): completely blocked
rFGF23-induced increase in intracellular Na^+ fluorescence (distal tubular Na^+ uptake) (renal distal tubules [1]; [6]): completely blocked

CCN(CC)CCCCNc1ncc2cc(-c3cc(OC)cc(OC)c3)c(NC(=O)NC(C)(C)C)nc2n1 [iFGFR1, PD173074]
rFGF23-induced increase in intracellular Ca^2+ fluorescence (distal tubular Ca^2+ uptake) (renal distal tubules [2]; [4]): no effect
rFGF23-induced increase in intracellular Ca^2+ fluorescence (distal tubular Ca^2+ uptake) (renal distal tubules [2]; Klotho/VDR kidney slices, ruthenium red 10 µM, closantel 30 ng/mL, PD173074 10 nM (iFGFR1) or 25 nM (FGFR1/3), listed as FGFR1/3 inhibitor): partially blocked
rFGF23-induced increase in intracellular Ca^2+ fluorescence (distal tubular Ca^2+ uptake) (renal distal tubules [2]; [5]): largely blocked
rFGF23-induced increase in intracellular Na^+ fluorescence (distal tubular Na^+ uptake) (renal distal tubules [1]; [3]): no effect
rFGF23-induced increase in intracellular Na^+ fluorescence (distal tubular Na^+ uptake) (renal distal tubules [1]; Klotho/VDR kidney slices, closantel 30 ng/mL, BF 15 µM, PD173074 10 nM (iFGFR1) or 25 nM (FGFR1/3), listed as FGFR1/3 inhibitor): completely blocked
rFGF23-induced increase in intracellular Na^+ fluorescence (distal tubular Na^+ uptake) (renal distal tubules [1]; [6]): largely blocked

NS(=O)(=O)c1cc2c(cc1Cl)N=CNS2(=O)=O [CTZ, chlorothiazide]
decrease of SFBI fluorescence intensity in distal tubules (renal distal tubules [1]; BF 15 µM): approximately 50%

CCOc1ccc2nc3cc(NCc4ccco4)ccc3c(N)c2c1 [STOCK2S-26016, 7-Ethoxy-N3-(2-furanylmethyl)-3,9-acridinediamine]
SPAK phosphorylation (SPAK): preventing
WNK-SPAK binding (WNK-SPAK binding): preventing

CC(C)(C)NC(=O)c1cncn1C1CCN(c2ccc(-c3nnc(C(F)(F)F)o3)cn2)CC1 [WNK463, N-tert-butyl-3-[1-[5-[5-(trifluoromethyl)-1,3,4-oxadiazol-2-yl]pyridin-2-yl]piperidin-4-yl]imidazole-4-carboxamide]
SPAK phosphorylation (SPAK): decreases
OSR1 phosphorylation (OSR1): decreases
